Laboratory results published in US8362065B2, “Carbazole carboxamide compounds useful as kinase inhibitors” (Bristol-Myers Squibb Company, priority 2008, dated 2013).
Structures can show the parent of a compound that is named as a salt.

These molecules were tested against T1, human recombinant Btk (Homo sapiens, UniProt Q06187) (assay: Human Recombinant Btk Enzyme Assay). Settings: human recombinant Btk 1 nM, ATP 20 μM, 60 min at room temperature; read-out: IC50 for Inhibition of Btk.
T1 construct: purchased Invitrogen Corporation
T1 sequence (Q06187 whole entry): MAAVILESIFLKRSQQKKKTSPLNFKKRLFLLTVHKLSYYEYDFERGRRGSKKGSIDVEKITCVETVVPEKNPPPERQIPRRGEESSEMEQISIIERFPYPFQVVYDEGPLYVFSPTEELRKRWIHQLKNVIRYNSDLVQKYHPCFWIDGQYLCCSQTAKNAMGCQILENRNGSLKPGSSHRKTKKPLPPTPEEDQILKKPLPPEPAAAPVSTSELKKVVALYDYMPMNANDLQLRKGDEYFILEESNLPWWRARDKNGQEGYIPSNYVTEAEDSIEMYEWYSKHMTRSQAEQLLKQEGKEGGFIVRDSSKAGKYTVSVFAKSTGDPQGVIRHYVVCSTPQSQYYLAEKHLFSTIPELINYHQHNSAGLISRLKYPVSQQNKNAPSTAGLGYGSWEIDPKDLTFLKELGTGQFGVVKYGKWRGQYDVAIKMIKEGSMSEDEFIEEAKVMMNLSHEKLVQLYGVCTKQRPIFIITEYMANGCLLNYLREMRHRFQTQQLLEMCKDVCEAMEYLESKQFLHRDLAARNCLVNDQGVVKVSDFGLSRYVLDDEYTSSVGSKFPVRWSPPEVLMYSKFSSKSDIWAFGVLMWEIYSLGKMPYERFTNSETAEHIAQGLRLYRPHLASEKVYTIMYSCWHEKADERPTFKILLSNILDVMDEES
Format: biochemical
`Cc1c(NC(=O)c2ncc[nH]2)cccc1-c1ccc(C(N)=O)c2[nH]c3cc(C(=O)N4CCN(C)CC4)ccc3c12` [Example 5-9, 4-(3-(1H-imidazole-2-carboxamido)-2-methylphenyl)-7-(4-methylpiperazine-1-carbonyl)-9H-carbazole-1-carboxamide (prepared as the TFA salt)] gave an IC50 of 1.9 nM. In the case of `Cc1c(NC(=O)c2nccn2C)cccc1-c1ccc(C(N)=O)c2[nH]c3cc(NC(=O)NC(C)C)ccc3c12` [Example 60-1, 7-(3-isopropylureido)-4-(2-methyl-3-(1-methyl-1H-imidazole-2-carboxamido)phenyl)-9H-carbazole-1-carboxamide], the IC50 is reported as 18 nM. For `Cc1nc(NC(=O)c2ccccc2)sc1-c1ccc(C(N)=O)c2[nH]c3c(c12)CCC(C(=O)NC1CCOCC1)C3` (centres unmarked) [Example 5-86], the IC50 was 910 nM. Molecule `Cc1c(NC(=O)c2ccc(S(N)(=O)=O)cc2)cccc1-c1ccc(C(N)=O)c2[nH]c3cc(C(=O)N4CCN(C)CC4)ccc3c12` [Example 5-69, 4-(2-methyl-3-(4-sulfamoylbenzamido)phenyl)-7-(4-methylpiperazine-1-carbonyl)-9H-carbazole-1-carboxamide (prepared as the TFA salt)] has an IC50 of 2 nM. In the case of `Cc1c(NC(=O)c2ccc(F)cc2)cccc1-c1ccc(C(N)=O)c2[nH]c3cc(N(Cc4ccccc4)Cc4ccccc4)ccc3c12` [Example 54-7, 7-(dibenzylamino)-4-(3-(4-fluorobenzamido)-2-methylphenyl)-9H-carbazole-1-carboxamide], the IC50 is reported as 830 nM. `CN1CCN(C(=O)c2ccc3c(c2)[nH]c2c(C(N)=O)ccc(-c4cc(Cl)ccc4F)c23)CC1` [Example 2-13, 4-(5-chloro-2-fluorophenyl)-7-(4-methylpiperazine-1-carbonyl)-9H-carbazole-1-carboxamide] was tested, and the IC50 was 15 nM. With `Cc1c(-c2ccc(C(N)=O)c3[nH]c4cc(NCC(O)CO)ccc4c23)cccc1N1Cc2ccccc2C1=O` (centres unmarked) [Example 67-1, 7-(2,3-dihydroxypropylamino)-4-(2-methyl-3-(1-oxoisoindolin-2-yl)phenyl)-9H-carbazole-1-carboxamide] the IC50 was 2.2 nM. With `Cc1c(NC(=O)c2ccc(F)cc2)cccc1-c1ccc(C(N)=O)c2[nH]c3cc(NC(=O)CN)ccc3c12` [Example 57-37] the IC50 was 1.8 nM. `Cc1c(NC(=O)c2ncccc2O)cccc1-c1ccc(C(N)=O)c2[nH]c3cc(C(=O)N4CCN(C)CC4)ccc3c12` [Example 5-19, 4-(3-(3-hydroxypicolinamido)-2-methylphenyl)-7-(4-methylpiperazine-1-carbonyl)-9H-carbazole-1-carboxamide (prepared as the TFA salt)] showed an IC50 of 17 nM. `Cc1c(NC(=O)C(C)(C)c2ccc(Cl)cc2)cccc1-c1ccc(C(N)=O)c2[nH]c3cc(C(=O)N4CCN(C)CC4)ccc3c12` [Example 5-44] showed an IC50 of 16 nM. `Cc1ccc2c(Nc3cccc(-c4ccc(C(N)=O)c5[nH]c6cc(N7CCCC7=O)ccc6c45)c3C)ncnc2c1` [Example 79-2] gave an IC50 of 16.9 nM. `CC(=O)Nc1ccc(F)c(-c2ccc(C(N)=O)c3[nH]c4cc(C(=O)N5CCN(C)CC5)ccc4c23)c1` [Example 2-35, 4-(5-acetamido-2-fluorophenyl)-7-(4-methylpiperazine-1-carbonyl)-9H-carbazole-1-carboxamide] gave an IC50 of 16 nM. In the case of `Cc1c(NC(=O)c2ccc(F)cc2)cccc1-c1ccc(C(N)=O)c2[nH]c3cc(C(=O)N4CCN(CCO)CC4)ccc3c12` [Example 24-17, 4-(3-(4-fluorobenzamido)-2-methylphenyl)-7-(4-(2-hydroxyethyl)piperazine-1-carbonyl)-9H-carbazole-1-carboxamide (prepared as the TFA salt)], the IC50 is reported as 15 nM. `Cc1c(-c2ccc(C(N)=O)c3[nH]c4cc(C(O)CO)ccc4c23)cccc1N1Cc2ccc(F)cc2C1=O` (racemic) [Example 70-6, 7-((RS)-1,2-dihydroxyethyl)-4-(3-(6-fluoro-1-oxoisoindolin-2-yl)-2-methylphenyl)-9H-carbazole-1-carboxamide] was tested, and the IC50 was 0.8 nM. In the case of `CN1CCN(C(=O)C2CCc3c([nH]c4c(C(N)=O)ccc(Br)c34)C2)CC1` (centres unmarked) [Example 1-3, 5-bromo-2-(4-methylpiperazine-1-carbonyl)-2,3,4,9-tetrahydro-1H-carbazole-8-carboxamide], the IC50 is reported as 490 nM. `Cc1c(-c2ccc(C(N)=O)c3[nH]c4c(c23)CCC(C(=O)N2CCN(C)CC2)C4)cccc1N1Cc2ccccc2C1=O` (centres unmarked) [Example 3-122] gave an IC50 of 18 nM. `Cc1c(-c2ccc(C(N)=O)c3[nH]c4cc(NC(=O)C(C)(C)C)ccc4c23)cccc1N1Cc2cc(F)ccc2C1=O` [Example 66-34] showed an IC50 of 16 nM. With `Cc1c(NC(=O)c2ccc(F)cc2)cccc1-c1ccc(C(N)=O)c2[nH]c3cc(NC(=O)[C@H](C)N)ccc3c12` [Example 57-3, 7-((S)-2-aminopropanamido)-4-(3-(4-fluorobenzamido)-2-methylphenyl)-9H-carbazole-1-carboxamide] the IC50 was 2.1 nM. For `Cc1c(-c2ccc(C(N)=O)c3[nH]c4c(c23)CCC(C(=O)N(C)C2CCN(C)CC2)C4)cccc1N1Cc2ccc(C(F)(F)F)cc2C1=O` (centres unmarked) [Example 3-130], the IC50 was 2 nM. With `Cc1c(NC(=O)c2ccc(F)cc2)cccc1-c1ccc(C(N)=O)c2[nH]c3cc(NC(=O)CCCN4CCOCC4)ccc3c12` [Example 57-16] the IC50 was 2.1 nM. `CN1CCN(C(=O)c2ccc3c(c2)[nH]c2c(C(N)=O)ccc(N4CCC[C@@H](NC(=O)Nc5nccs5)C4)c23)CC1` [Example 19-1, (R)-7-(4-methylpiperazine-1-carbonyl)-4-(3-(3-thiazol-2-ylureido)piperidin-1-yl)-9H-carbazole-1-carboxamide] gave an IC50 of 17 nM. With `Cc1c(-c2ccc(C(N)=O)c3[nH]c4c(c23)CCC(C(C)(C)O)C4)cccc1-n1cnc2cccc(F)c2c1=O` (centres unmarked) [Example 76-41] the IC50 was 18 nM. `Cc1c(-c2ccc(C(N)=O)c3[nH]c4c(c23)CCC(CO)C4)cccc1N1C(=O)c2ccc(C(C)(C)C)cc2C1=O` (centres unmarked) [Example 31-2, 5-(3-(5-tert-butyl-1,3-dioxoisoindolin-2-yl)-2-methylphenyl)-2-(hydroxymethyl)-2,3,4,9-tetrahydro-1H-carbazole-8-carboxamide] gave an IC50 of 700 nM. Work on `CC(=O)OCC1CCc2c([nH]c3c(C(N)=O)ccc(-c4cccc(N5C(=O)c6ccc(C(C)(C)C)cc6C5=O)c4C)c23)C1` (centres unmarked) [Example 31-3, (5-(3-(5-tert-butyl-1,3-dioxoisoindolin-2-yl)-2-methylphenyl)-8-carbamoyl-2,3,4,9-tetrahydro-1H-carbazol-2-yl)mEtOAc] yielded an IC50 of 1500 nM. `Cc1c(-c2ccc(C(N)=O)c3[nH]c4cc(NC(C)C)ccc4c23)cccc1-n1ccn2ccnc2c1=O` [Example 80-1, 7-(isopropylamino)-4-(2-methyl-3-(8-oxoimidazo[1,2-a]pyrazin-7(8H)-yl)phenyl)-9H-carbazole-1-carboxamide] gave an IC50 of 1.9 nM. With `Cc1c(Nc2nccc3ccccc23)cccc1-c1ccc(C(N)=O)c2[nH]c3cc(C(=O)N4CCN(C)CC4)ccc3c12` [Example 11-1, 4-(3-(isoquinolin-1-ylamino)-2-methylphenyl)-7-(4-methylpiperazine-1-carbonyl)-9H-carbazole-1-carboxamide] the IC50 was 15 nM. Molecule `Cc1c(-c2ccc(C(N)=O)c3[nH]c4cc(O)ccc4c23)cccc1N1Cc2ccccc2C1=O` [Example 41-1, 7-hydroxy-4-(2-methyl-3-(1-oxoisoindolin-2-yl)phenyl)-9H-carbazole-1-carboxamide] has an IC50 of 16 nM. With `Cc1ccc2c(c1)C(=O)N(c1cccc(-c3ccc(C(N)=O)c4[nH]c5cc(C(O)CO)ccc5c34)c1C)C2` (centres unmarked) [Example 70-11, 7-(1,2-dihydroxyethyl)-4-(2-methyl-3-(6-methyl-1-oxoisoindolin-2-yl)phenyl)-9H-carbazole-1-carboxamide] the IC50 was 1.4 nM. `Cc1nc(N)sc1-c1ccc(C(N)=O)c2[nH]c3c(c12)CCC(C(=O)NC1CCOCC1)C3` (centres unmarked) [Example 4-3, 5-(2-amino-4-methylthiazol-5-yl)-N^2-(tetrahydro-2H-pyran-4-yl)-2,3,4,9-tetrahydro-1H-carbazole-2,8-dicarboxamide] was tested, and the IC50 was 390 nM. Work on `Cc1ccc(C(=O)Nc2cccc(-c3ccc(C(N)=O)c4[nH]c5cc(C(=O)N6CCN(C)CC6)ccc5c34)c2C)cc1` [Example 5-58, 4-(2-methyl-3-(4-methylbenzamido)phenyl)-7-(4-methylpiperazine-1-carbonyl)-9H-carbazole-1-carboxamide (prepared as the TFA salt)] yielded an IC50 of 2.2 nM. `Cc1c(NC(=O)c2ccc(F)cc2)cccc1-c1ccc(C(N)=O)c2[nH]c3cc(NC4CCN(C)CC4)ccc3c12` [Example 61-2] showed an IC50 of 2.2 nM. In the case of `Cc1c(Nc2ncnc3ccc(F)cc23)cccc1-c1ccc(C(N)=O)c2[nH]c3cc(N4CCCC4=O)ccc3c12` [Example 79-3], the IC50 is reported as 15 nM. Work on `CC(C)(O)C1CCc2c([nH]c3c(C(N)=O)ccc(Br)c23)C1` (centres unmarked) [Example 73-1, 5-bromo-2-(2-hydroxypropan-2-yl)-2,3,4,9-tetrahydro-1H-carbazole-8-carboxamide] yielded an IC50 of 540 nM. Molecule `COc1cccc(NC(=O)c2ccc3c(c2)[nH]c2c(C(N)=O)ccc(-c4cccc(NC(=O)c5ccc(F)cc5)c4C)c23)c1` [Example 24-33, 4-(3-(4-fluorobenzamido)-2-methylphenyl)-N^7-(3-methoxyphenyl)-9H-carbazole-1,7-dicarboxamide (prepared as the TFA salt)] has an IC50 of 470 nM. `Cc1c(-c2ccc(C(N)=O)c3[nH]c4cc(NC(=O)OCc5ccccc5)ccc4c23)cccc1N1Cc2cc(C(C)(C)C)ccc2C1=O` [Example 51-4, benzyl 5-(3-(5-tert-butyl-1-oxoisoindolin-2-yl)-2-methylphenyl)-8-carbamoyl-9H-carbazol-2-ylcarbamate] was tested, and the IC50 was 1600 nM. For `CN1CCN(C(=O)c2ccc3c(c2)[nH]c2c(C(N)=O)ccc(-c4cccc(-c5ccccc5)c4)c23)CC1` [Example 3-48], the IC50 was 390 nM. `Cc1c(NC(=O)c2ccc(F)cc2)cccc1-c1ccc(C(N)=O)c2[nH]c3cc(C(=O)Nc4ccc(F)cc4)ccc3c12` [Example 24-34, 4-(3-(4-fluorobenzamido)-2-methylphenyl)-N^7-(4-fluorophenyl)-9H-carbazole-1,7-dicarboxamide (prepared as the TFA salt)] gave an IC50 of 410 nM. `CCOc1ccc2ccccc2c1-c1ccc(C(N)=O)c2[nH]c3cc(C(=O)N4CCN(C)CC4)ccc3c12` [Example 3-18] gave an IC50 of 2700 nM.
